Values quoted from earlier work as cited in patent publication US20040175342A1, “Process of making and using composition containing oxidation-sensitive hydrophilic active principle and maleic anhydride copolymer” (L'OREAL, priority 2002, published 2004).

Experiments:
[1] = test system: reconstructed epidermides
[2] = test system: keratinocytes
[3] = test system: reconstructed epidermides; details: after treatment

SMILES: O=C1O[C@H]([C@@H](O)CO)C([O-])=C1OP(=O)([O-])[O-].O=C1O[C@H]([C@@H](O)CO)C([O-])=C1OP(=O)([O-])[O-].[Mg+2].[Mg+2].[Mg+2] [magnesium ascorbyl phosphate]
- bioavailability: very low
- synthesis of ceramides [1]: this effect has also been demonstrated

SMILES: O=C1O[C@H]([C@@H](O)CO)C(O)=C1O [Ascorbic acid, ascorbic acid]
- effect on differentiation of keratinocytes [2]: prodifferentiating effect
- barrier function of reconstructed epidermides [3]: improved
- synthesis of ceramides [1]: increase

SMILES: O=C1O[C@H]([C@@H](O)CO)C(O)=C1O[C@H]1O[C@H](CO)[C@@H](O)[C@H](O)[C@H]1O [ascorbyl glucoside]
- synthesis of ceramides [1]: this effect has also been demonstrated
